From patent US8445493B2, “Tetrasubstituted pyridazines hedgehog pathway antagonists” (Eli Lilly and Company, priority 2008, dated 2013)
Counter-ions that a name gives are not always drawn.

Tested on: Gli1 transcript in Shh-stimulated Daoy cells
Test: Functional assay for measuring the inhibition of Gli1 in Daoy cells (bDNA assay)
Assay type: cell-based
Settings: Homo sapiens; Daoy cells stimulated with Shh conditioned media, 24 hours incubation with compound, Gli1 transcript by bDNA luminescence
Protocol: Biological activity is determined using a functional assay in Daoy neuronal cancer cells and measures levels of Gli1 ribonucleic acid via a bDNA (branched deoxyribonucleic acid) assay system (Panomics, Inc., Fremont, Calif.). Gli was originally discovered in a Glioblastoma cell line and encodes a zinc finger protein that is activated by Shh signaling. The maximum response is obtained by inducing Gli1 transcription in the Daoy cells with conditioned medium (human embryonic kidney, HEK-293 cells stably expressing recombinant Shh) for 24 hours and then measuring the amount of stimulated Gli1 transcript. […]
The bDNA assay system utilizes the technology of branched-chain DNA to allow amplification of a target ribonucleic acid (transcript). […] The addition of a chemilumigenic substrate during the amplification step allows for detection using luminescence. […]
Daoy cells are grown to confluency in tissue culture T225-flasks in Daoy growth media containing Minimum Essential Medium (MEM) plus 10% Fetal Bovine Serum (FBS) with […] non-essential amino acids and 1 mM sodium pyruvate. The cells are removed from the T225-flasks using trypsin ethylenediaminetetraacetic acid (EDTA), centrifuged, resuspended in media, and then counted. […]

IC50: ~1.26 nM
SMILES: Cc1c(-c2ccccc2)nnc(N2CCN(C(=O)NC3CCC(F)(F)CC3)[C@@H](C)C2)c1C [Example 1, (S)—N-(4,4-Difluorocyclohexyl)-4-(4,5-dimethyl-6-phenylpyridazin-3-yl)-2-methylpiperazine-1-carboxamide hydrochloride]
